The first data set can be described thus: Oral bioavailability in human. The note with it: in vivo.
What is called bioavailability is dose-corrected exposure relative to a reference, in per cent. Turning to `O=C(O)[C@H]1N=C(c2ccccc2)c2cc(Cl)ccc2NC1=O`, the bioavailability was found to be 91%.
In turn, `O=P1(N(CCCl)CCCl)NCCCO1` (stereo not given) [CYCLOPHOSPHAMIDE ANHYDROUS] yielded a bioavailability of 74%.
Take `CCCCCc1cc(O)c2c(c1)OC(C)(C)[C@@H]1CCC(C)=C[C@@H]21` [DRONABINOL]: the bioavailability is 15%.
In turn, `Cc1nnc2n1-c1ccc(Cl)cc1C(c1ccccc1Cl)=NC2` [TRIAZOLAM] gave a bioavailability of 44%.
On to `N[C@H](Cc1ccc(N(CCCl)CCCl)cc1)C(=O)O`, for which the bioavailability came to 71%.
On the same count and under the same terms, the same measure for `Cc1c(OCC(F)(F)F)ccnc1C[S+]([O-])c1nc2ccccc2[nH]1` (stereo not given) [LANSOPRAZOLE]: 80%; for `CC(C)C[C@H]1C(=O)N2CCC[C@H]2[C@]2(O)O[C@](NC(=O)[C@@H]3C=C4c5cccc6[nH]c(Br)c(c56)C[C@H]4N(C)C3)(C(C)C)C(=O)N12` [BROMOCRIPTINE]: 4.5%.
In the case of `C[C@H]1O[C@@H](O[C@H]2[C@@H](O)C[C@H](O[C@H]3[C@@H](O)C[C@H](O[C@H]4CC[C@@]5(C)[C@H](CC[C@@H]6[C@@H]5CC[C@]5(C)[C@@H](C7=CC(=O)OC7)CC[C@]65O)C4)O[C@@H]3C)O[C@@H]2C)C[C@H](O)[C@@H]1O` [DIGITOXIN], the bioavailability was 88.5%.
`Cc1ccc(-c2nc3ccc(C)cn3c2CC(=O)N(C)C)cc1` [ZOLPIDEM] came in with a bioavailability of 72%.
With `COc1ccc([C@H](CN(C)C)C2(O)CCCCC2)cc1`, the bioavailability came to 45%.
`CC(C)N(CC[C@@](C(N)=O)(c1ccccc1)c1ccccn1)C(C)C` [DISOPIRAMIDE] returned a bioavailability of 83%.
For `OCCN1CCN(CCCN2c3ccccc3Sc3ccc(C(F)(F)F)cc32)CC1` [FLUPHENAZINE], the bioavailability is 2.7%.
As for `CC(C)C[C@H]1C(=O)N2CCC[C@H]2[C@]2(O)O[C@@](C)(NC(=O)[C@@H]3CC4c5cccc6[nH]cc(c56)C[C@H]4N(C)C3)C(=O)N12` (stereo not given in full) [DIHYDROERGOSINE], the bioavailability is 10%.
In the case of `O=C(O)[C@@H]1N=C(c2ccccc2)c2cc(Cl)ccc2NC1=O`, the bioavailability worked out at 91%.
In turn, `COc1c(N2CCN[C@@H](C)C2)c(F)cc2c(=O)c(C(=O)O)cn(C3CC3)c12` [(S)-GATIFLOXACIN] registered a bioavailability of 96%.

The same data set, now with this note: in vivo, F.
`C[C@H](C(=O)O)c1ccc(C(=O)c2cccs2)cc1` [(S)-SUPROFEN] gave a bioavailability of 92%.
For `CN1CCC[C@@H]1Cc1c[nH]c2ccc(CCS(=O)(=O)c3ccccc3)cc12`, the bioavailability is 62.5%.
Regarding `COc1cc(N[C@H](C)CCCN)c2ncccc2c1`, the bioavailability is 96%.
Molecule `Cc1[nH]cnc1CN1CCc2c(c3ccccc3n2C)C1=O` [ALOSETRON] showed a bioavailability of 55%.
Same read-out and setting: as for `Cc1cccc(C)c1NC(=O)[C@@H](C)N` [(R)-TOCAINIDE], the figure is 89%.
Still for that read-out and setting: as for `CC1=CC[C@H](C(C)(C)O)C[C@H]1O`, the figure is 72%; as for `CC(=O)Oc1ccccc1C(=O)O` [ASPIRIN], 68%; as for `O=C(O)c1cc(-c2ccc(F)cc2F)ccc1O` [DIFLUNISAL], 100%.
`O=C(O)[C@H]1/C(=C/CO)O[C@@H]2CC(=O)N21` [CLAVULANIC ACID]: the bioavailability stood at 75%.
As to `CC(C)[C@H](N)C(=O)OC[C@@H](CO)OCn1cnc2c(=O)nc(N)[nH]c21` [(R)-VALGANCICLOVIR], the bioavailability came out at 59.4%.
Regarding `CC[C@H]1OC(=O)[C@H](C)[C@@H](O[C@H]2C[C@@](C)(OC)[C@@H](O)[C@H](C)O2)[C@H](C)[C@@H](O[C@@H]2O[C@H](C)C[C@H](N(C)C)[C@H]2O)[C@](C)(OC)C[C@@H](C)C(=O)[C@H](C)[C@@H](O)[C@]1(C)O` [CLARITHROMYCIN], the bioavailability is 50%.
On to `CN(C)CCCN1c2ccccc2CCc2ccccc21` [IMIPRAMINE], for which the bioavailability is 42%.
In turn, `C=C[C@H]1C[N@@]2CC[C@H]1C[C@@H]2[C@@H](O)c1ccnc2ccc(OC)cc12` [QUINIDINE] displayed a bioavailability of 75%.
As for `C[C@]12C=CC(=O)C=C1CC[C@@H]1[C@@H]2[C@@H](O)C[C@@]2(C)[C@H]1CC[C@]2(O)C(=O)COP(=O)(O)O` [PREDNISOLONE PHOSPHORIC ACID], the bioavailability amounted to 82%.
For `CNS(=O)(=O)CCc1ccc2[nH]cc(C3CCN(C)CC3)c2c1`, the bioavailability amounted to 67.5%.
For `Cc1ccsc1C(=CCCN1CCCC(C(=O)O)C1)c1sccc1C` (single isomer, unassigned) [TIAGABINE], the bioavailability is 90%.
Still for that read-out and setting: the same measure for `COc1ccc(-c2nc(-c3ccc(F)cc3F)[nH]c2-c2ccc(OC)cc2)cc1` [FENFLUMIZOLE]: 50%.
Take `C[C@H](N/C(=N/c1ccncc1)NC#N)C(C)(C)C`: the bioavailability turned out to be 57%.
Molecule `CC(=O)S[C@@H]1CC2=CC(=O)CC[C@]2(C)[C@H]2CC[C@@]3(C)[C@@H](CC[C@@]34CCC(=O)O4)[C@H]12` [SPIRONOLACTONE] gave a bioavailability of 25%.
The molecule `CN(C)[C@@H]1C(O)=C(C(N)=O)C(=O)[C@@]2(O)C(O)=C3C(=O)c4c(O)cccc4[C@@](C)(O)[C@H]3C[C@@H]12` [TETRACYCLINE] had a bioavailability of 77%.
Consider `CN(C)CCC[C@@]1(c2ccc(F)cc2)OCc2cc(C#N)ccc21` [ESCITALOPRAM], for which the bioavailability is 80%.
As for `Cc1cc2c(OC[C@H](O)CNC(C)C)cccc2[nH]1` [(R)-MEPINDOLOL], the bioavailability was found to be 82%.
For the molecule `Cc1cccc(C)c1OC[C@H](C)N` [(S)-MEXILETINE], the bioavailability was determined as 87%.
On the same count and under the same terms, as for `CN1C(C(=O)Nc2ccccn2)=C(O)c2ccccc2S1(=O)=O` [PIROXICAM], the figure is 100%; as for `C#C[C@]1(O)CC[C@H]2[C@@H]3CCC4=CC(=O)CC[C@@H]4[C@H]3CC[C@@]21CC` [LEVONORGESTREL], 87%.
Molecule `C[C@@H](O)Cn1cnc2c1c(=O)n(C)c(=O)n2C` [(R)-PROXYPHYLLINE] came in with a bioavailability of 100%.
In turn, `CC(C)Nc1cccnc1N1CCN(C(=O)c2cc3cc(NS(C)(=O)=O)ccc3[nH]2)CC1` [DELAVIRDINE] had a bioavailability of 96%.
As to `Cc1nnc(SCC2=C(C(=O)O)N3C(=O)[C@@H](NC(=O)Cn4cnnn4)[C@H]3SC2)s1` [CEFAZOLIN], the bioavailability came out at 90%.
With `CCC(C)n1ncn(-c2ccc(N3CCN(c4ccc(OC[C@H]5CO[C@](Cn6cncn6)(c6ccc(Cl)cc6Cl)O5)cc4)CC3)cc2)c1=O` (stereo not given in full) [ITRACONAZOLE], the bioavailability amounted to 55%.
In turn, `C[C@@H]1C[C@H]2[C@@H]3C[C@H](F)C4=CC(=O)C=C[C@]4(C)[C@@]3(F)[C@@H](O)C[C@]2(C)[C@@]1(O)C(=O)SCF` [FLUTICASONE] displayed a bioavailability of 1%.
On the same count and under the same terms, the same measure for `Nc1ccc(S(=O)(=O)c2ccc(N)cc2)cc1` [DAPSONE]: 93%; for `COc1ccccc1Oc1c(NS(=O)(=O)c2ccc(C(C)(C)C)cc2)nc(-c2ncccn2)nc1OCCO` [BOSENTAN]: 50%.
`Nc1nc(=O)[nH]cc1F` [FLUCYTOSINE] yielded a bioavailability of 83.5%.
With `COc1ccc([C@@H]2Sc3ccccc3N(CCN(C)C)C(=O)[C@@H]2OC(C)=O)cc1` [DILTIAZEM], the bioavailability worked out at 40%.
On the same count and under the same terms, the same measure for `O=C1NS(=O)(=O)c2ccccc21` [SACCHARIN]: 84%.
Take `CCOC(=O)C1=C(C)NC(C)=C(C(=O)OC)[C@H]1c1cccc(Cl)c1Cl` [(R)-FELODIPINE]: the bioavailability amounted to 15%.
As for `CCN(CC)CCNC(=O)c1ccc(N)cc1` [PROCAINAMIDE], the bioavailability stood at 83%.
As to `CS(=O)(=O)OCCCCOS(C)(=O)=O` [BUSULFAN], the bioavailability came to 80%.
The molecule `O=C1NC(=O)C(c2ccccc2)(c2ccccc2)N1` [PHENYTOIN] displayed a bioavailability of 90%.
In turn, `O[C@@](CCN1CCCC1)(c1ccccc1)C1CCCCC1` [(R)-PROCYCLIDINE] registered a bioavailability of 75%.
Molecule `CCCc1nn(C)c2c(=O)[nH]c(-c3cc(S(=O)(=O)N4CCN(C)CC4)ccc3OCC)nc12` registered a bioavailability of 40%.
On the same count and under the same terms, the same measure for `O=C(CCCN1CCC(O)(c2ccc(Cl)cc2)CC1)c1ccc(F)cc1` [HALOPERIDOL]: 60%; for `O=C1Cc2cc(CCN3CCN(c4nsc5ccccc45)CC3)c(Cl)cc2N1` [ZIPRASIDONE]: 60%.
For the molecule `CN(C)CCc1c[nH]c2ccc(Cn3cncn3)cc12` [RIZATRIPTAN], the bioavailability was 45%.
For the molecule `CC(C)(C)NC[C@@H](O)COc1cccc2c1C[C@H](O)[C@H](O)C2` [R-NADOLOL], the bioavailability stood at 34%.
The molecule `CCCNC1CCc2nc(N)sc2C1` (single isomer, unassigned) [PRAMIPEXOLE] came in with a bioavailability of 90%.
As to `CCCC(CCC)C(=O)O` [VALPROIC ACID], the bioavailability was 90%.
On the same count and under the same terms, the same measure for `CN1Cc2c(N)cccc2[C@H](c2ccccc2)C1`: 27%.
With `Cc1[nH]c(=O)c(C#N)cc1-c1ccncc1` [MILRINONE], the bioavailability stood at 92%.
Same read-out and setting: the same measure for `Cc1cccc(OC[C@H](O)CNC(C)C)c1` [(R)-TOLIPROLOL]: 90%.
Still for that read-out and setting: the same measure for `C[C@H](O)Cn1cnc2c1c(=O)n(C)c(=O)n2C` [(S)-PROXYPHYLLINE]: 100%.
In turn, `CCCc1nc(C)c2c(=O)[nH]c(-c3cc(S(=O)(=O)N4CCN(CC)CC4)ccc3OCC)nn12` returned a bioavailability of 15%.
Consider `CCCCNc1cc(C(=O)O)cc(S(N)(=O)=O)c1Oc1ccccc1` [BUMETANIDE], for which the bioavailability worked out at 81%.
The molecule `Nc1ccn([C@@H]2CS[C@H](CO)O2)c(=O)n1` [LAMIVUDINE] came in with a bioavailability of 86%.
In the case of `CS(=O)(=O)c1ccc(C2=C(c3ccccc3)C(=O)OC2)cc1` [ROFECOXIB], the bioavailability came to 93%.
In turn, `O=C(O)Cc1nn(-c2ccc(F)cc2)cc1-c1ccc(Cl)cc1` [PIRAZOLAC] gave a bioavailability of 93.5%.
Turning to `C=CC[C@@H]1/C=C(\C)C[C@H](C)C[C@H](OC)[C@H]2O[C@@](O)(C(=O)C(=O)N3CCCC[C@H]3C(=O)O[C@H](/C(C)=C/[C@@H]3CC[C@@H](O)[C@H](OC)C3)[C@H](C)[C@@H](O)CC1=O)[C@H](C)C[C@@H]2OC` [TACROLIMUS ANHYDROUS], the bioavailability came out at 17%.
Still for that read-out and setting: the same measure for `Cc1cccc(OC[C@@H](O)CNC(C)C)c1` [(S)-TOLIPROLOL]: 90%; for `CC(C)[C@H]1CC[C@H](C(=O)N[C@@H](Cc2ccccc2)C(=O)O)CC1` [(S)-NATEGLINIDE]: 73%; for `N/N=c1/cc2c(n[nH]1)CCN(C(=O)c1ccccc1)C2` [ENDRALAZINE]: 75%.
